From paper PMC12298883, “Discovery of Cyclopentane-Based Phospholipids as Miltefosine Analogs with Superior Potency and Enhanced Selectivity Against Naegleria fowleri” (Pharmaceuticals, 2025)

Columns and labels:
N. fowleri trophozoites = assay: Anti-amoebic viability assay (CellTiter-Blue) with microscopic observation; assay type: cell-based, Naegleria fowleri; conditions: for Selectivity Index: CC50 of C6 glial cell divided by IC50 of inhibition of N. fowleri; for Relative Potency to Miltefosine: IC50 of miltefosine divided by IC50 of compound, N. fowleri; for IC50: Naegleria fowleri, 48 h, N. fowleri trophozoites, viability, mean ± SD of three assays, read-out: IC50 of Inhibition of N. fowleri; for fold increase in potency of anti-amoebic activity relative to corresponding cis-configured derivative: trans vs cis 1,2-restricted derivative with same alkyl chain
Procedure: (§1) A viability assay was performed to evaluate the inhibitory activity of the tested compounds by determining their IC50 values against N. fowleri, using miltefosine as a reference drug. To assess the selectivity of the tested compounds relative to miltefosine, cytotoxic values that reduced the viability of C6 glial cells by 50% were established.
(§2) N. fowleri Carter NF69 strain (ATCC 30215; American Type Culture Collection, Manassas, VA, USA) was used. Amoeba trophozoites were cultured and maintained in Nelson’s medium containing 5% foetal bovine serum (FBS; Gibco, Grand Island, NY, USA) and 1% penicillin/streptomycin (P/S; Gibco, Grand Island, NY, USA) at 37 °C [56]. C6 rat glial cells (C6 cells; ATCC CCL-107) were cultured in Dulbecco’s Modified Eagle’s Medium (DMEM; Gibco, Grand Island, NY, USA) supplemented with 10% FBS (Gibco, Grand Island, NY, USA) and 1% P/S (Gibco, Grand Island, NY, USA) at 37 °C in a humidified incubator under 5% CO2 atmosphere.
N. fowleri trophozoites (5 × 10^4 cells/well) were seeded in a 96-well microplate (Thermo Fisher Scientific, Waltham, MA, USA) in Nelson’s medium and incubated at 37 °C overnight. N. fowleri trophozoites were treated with 2-fold serial dilutions of tested compounds (from 0 to 200 µM) or miltefosine (150 µM) and incubated at 37 °C for 48 h. The viability of the amoebae was determined using the CellTiter-Blue® Cell viability assay (Promega, Madison, WI, USA). Inhibitory concentration 50 (IC50) and IC90 were calculated by the nonlinear regression method using GraphPad Prism 9.1.0 software (GraphPad Software, San Diego, CA, USA). Amoebae treated with 0.1% DMSO were used as a control, representing 100% cell viability. Morphological changes of the amoebae were observed microscopically.

[1] = Cytotoxicity assay for C6 cells (CellTiter-Blue); assay type: cell-based; conditions: rat, C6 glial cells, viability, mean ± SD
Procedure: as §1, §2
The potential cytotoxicity of tested compounds and miltefosine in C6 cells was analysed. The cells were seeded in a 96-well microplate (Thermo Fisher Scientific; 2 × 10^4 cells/well), respectively, and incubated overnight until 80% confluent. Serially diluted tested compounds and miltefosine were treated to the cells as described above. Morphological changes of the cells were observed by microscopic examination. Cell viability was determined using the CellTiter-Blue® Cell viability assay (Promega, […], USA). The cytotoxic concentrations 50 (CC50) of tested compounds and miltefosine were calculated using GraphPad Prism 9.1.0 software (GraphPad Software, San Diego, CA, USA). The […] (SI) was determined by the ratio between CC50 and IC50. Cells treated with 0.1% DMSO, which was confirmed not to alter the morphology of the cells by microscopic examination, were used as controls with 100% cell viability.

SMILES | Selectivity Index (N. fowleri trophozoites) | Relative Potency to Miltefosine (N. fowleri trophozoites) | IC50 (N. fowleri trophozoites) | CC50 [1] | fold increase in potency of anti-amoebic activity relative to corresponding cis-configured derivative (N. fowleri trophozoites)
CCCCCCCCCCCCO[C@H]1CCC[C@H]1COP(=O)([O-])OCC[N+](C)(C)C [Compound 1a] | >2.47 | ~0.90 fold | 162 ± 1.02 µM | > 400 µM | –
CCCCCCCCCCCCCO[C@H]1CCC[C@H]1COP(=O)([O-])OCC[N+](C)(C)C [Compound 1b] | 2.69 | 3.74 fold | 39.1 ± 0.6 µM | 105 ± 4.76 µM | –
CCCCCCCCCCCCCCCCCCO[C@H]1CCC[C@H]1COP(=O)([O-])OCC[N+](C)(C)C [Compound 1c] | 2.18 | 2.01 fold | 72.7 ± 2.32 µM | 158.4 ± 0.71 µM | –
CCCCCCCCCCCCCCCCCCCCO[C@H]1CCC[C@H]1COP(=O)([O-])OCC[N+](C)(C)C [Compound 1d] | 1.59 | 3.4 fold | 43.6 ± 1.02 µM | 69.49 ± 0.16 µM | –
CCCCCCCCCCCCCCCCCCCCCCO[C@H]1CCC[C@H]1COP(=O)([O-])OCC[N+](C)(C)C [Compound 1e] | 0.69 | 0.88 fold | 166 ± 68 µM | 114 ± 3.2 µM | –
CCCCCCCCCCCCCCCCCCO[C@@H]1CCC[C@H]1COP(=O)([O-])OCC[N+](C)(C)C [Compound 2b] | 2.94 | 6.18 fold | 23.7 ± 0.5 µM | 69.71 ± 0.04 µM | 2.19- to 3.07 fold
CCCCCCCCCCCCCCCCCCCCO[C@@H]1CCC[C@H]1COP(=O)([O-])OCC[N+](C)(C)C [Compound 2c] | 2.19 | 7.46 fold | 19.6 ± 0.44 µM | 43 ± 8.37 µM | 2.19- to 3.07 fold
CCCCCCCCCCCCCCCCCCCCCCO[C@@H]1CCC[C@H]1COP(=O)([O-])OCC[N+](C)(C)C [Compound 2d] | 1.28 | 2.63 fold | 55.6 ± 3.32 µM | 71.03 ± 0.61 µM | 2.98 fold
CCCCCCCCCCCCOC[C@@H]1CCC[C@H]1OP(=O)([O-])OCC[N+](C)(C)C [Compound 3a] | >1.43 | 0.52 fold | 279.4 ± 0.94 µM | > 400 µM | –
CCCCCCCCCCCCCCCCCCOC[C@@H]1CCC[C@H]1OP(=O)([O-])OCC[N+](C)(C)C [Compound 3c] | 0.77 | 1.92 fold | 76.3 ± 1.56 µM | 58.5 ± 2.08 µM | –
